Laboratory results reported in patent publication US10750743B2, “Pyridazinone herbicides” (E.I. DU PONT DE NEMOURS AND COMPANY, priority 2015, dated 2020).

Legend:
Assay type in all cases: in vivo
[1] = test system: foxtail, giant (giant foxtail, Setaria faberii); assay: Test A preemergence, directed soil spray, visual injury rating; details: 0 is no effect, 100 is complete control
Source text: (§1) Seeds of plant species selected from barnyardgrass (Echinochloa crus-galli), kochia (Kochia scoparia), ragweed (common ragweed, Ambrosia elatior), ryegrass, It. (Italian ryegrass, Lolium multiflorum), foxtail, giant (giant foxtail, Setaria faberii), and pigweed (Amaranthus retroflexus), were planted into a blend of loam soil and sand and treated preemergence with a directed soil spray using test chemicals formulated in a non-phytotoxic solvent mixture which included a surfactant.
(§2) At the same time, plants selected from these weed species and also wheat (Triticum aestivum), corn (Zea mays), blackgrass (Alopecurus myosuroides), and galium (catchweed bedstraw, Galium aparine), were planted in pots containing the same blend of loam soil and sand and treated with postemergence applications of test chemicals formulated in the same manner Plants ranged in height from 2 to 10 cm and were in the one- to two-leaf stage for the postemergence treatment. Treated plants and untreated controls were maintained in a greenhouse for approximately 10 d, after which time all treated plants were compared to untreated controls and visually evaluated for injury. Plant response ratings, summarized in Table A, are based on a 0 to 100 scale where 0 is no effect and 100 is complete control. A dash (-) response means no test result.

[2] = test system: ryegrass, It. (Italian ryegrass, Lolium multiflorum); assay: as above; details: 0 is no effect, 100 is complete control
Source text: as §1, §2

[3] = test system: barnyardgrass (Echinochloa crus-galli); assay: as above; details: 0 is no effect, 100 is complete control
Source text: as §1, §2

kochia (Kochia scoparia) [4] = assay: as above; details: 0 is no effect, 100 is complete control
Source text: as §1, §2

[5] = test system: ragweed (common ragweed, Ambrosia elatior); assay: as above; details: 0 is no effect, 100 is complete control
Source text: as §1, §2

[6] = test system: pigweed (Amaranthus retroflexus); assay: as above; details: 0 is no effect, 100 is complete control
Source text: as §1, §2

[7] = test system: wheat (Triticum aestivum); assay: Test A postemergence application, visual injury rating; details: 0 to 100 scale, 0 no effect, 100 complete control
Source text: as §1, §2

[8] = test system: blackgrass (Alopecurus myosuroides); assay: as above; details: 0 to 100 scale, 0 no effect, 100 complete control
Source text: as §1, §2

[9] = test system: foxtail, giant (giant foxtail, Setaria faberii); assay: as above; details: 0 to 100 scale, 0 no effect, 100 complete control
Source text: as §1, §2

[10] = test system: ryegrass, It. (Italian ryegrass, Lolium multiflorum); assay: as above; details: 0 to 100 scale, 0 no effect, 100 complete control
Source text: as §1, §2

[11] = test system: galium (catchweed bedstraw, Galium aparine); assay: as above; details: 0 to 100 scale, 0 no effect, 100 complete control
Source text: as §1, §2

[12] = test system: barnyardgrass (Echinochloa crus-galli); assay: as above; details: 0 to 100 scale, 0 no effect, 100 complete control
Source text: as §1, §2

kochia (Kochia scoparia) [13] = assay: as above; details: 0 to 100 scale, 0 no effect, 100 complete control
Source text: as §1, §2

[14] = test system: ragweed (common ragweed, Ambrosia elatior); assay: as above; details: 0 to 100 scale, 0 no effect, 100 complete control
Source text: as §1, §2

[15] = test system: pigweed (Amaranthus retroflexus); assay: as above; details: 0 to 100 scale, 0 no effect, 100 complete control
Source text: as §1, §2

corn (Zea mays) = assay: as above; details: 0 to 100 scale, 0 no effect, 100 complete control
Source text: as §1, §2

Row | SMILES | Plant response rating (0 to 100 scale), Foxtail, Giant ([1]; 125 g ai/ha) | Plant response rating (0 to 100 scale), Foxtail, Giant ([1]; 500 g ai/ha) | Plant response rating (0 to 100 scale), Ryegrass, It. ([2]; 125 g ai/ha) | Plant response rating (0 to 100 scale), Ryegrass, It. ([2]; 500 g ai/ha) | Plant response rating (0 to 100 scale), Barnyardgrass ([3]; 125 g ai/ha) | Plant response rating (0 to 100 scale), Barnyardgrass ([3]; 500 g ai/ha) | Plant response rating (0 to 100 scale), Kochia (kochia (Kochia scoparia) [4]; 125 g ai/ha) | Plant response rating (0 to 100 scale), Kochia (kochia (Kochia scoparia) [4]; 500 g ai/ha) | Plant response rating (0 to 100 scale), Ragweed ([5]; 125 g ai/ha) | Plant response rating (0 to 100 scale), Ragweed ([5]; 500 g ai/ha) | Plant response rating (0 to 100 scale), Pigweed ([6]; 125 g ai/ha) | Plant response rating (0 to 100 scale), Pigweed ([6]; 500 g ai/ha) | Wheat plant response rating ([7]; 125 g ai/ha) | Wheat plant response rating ([7]; 500 g ai/ha) | Blackgrass plant response rating ([8]; 125 g ai/ha) | Blackgrass plant response rating ([8]; 500 g ai/ha) | Foxtail, Giant plant response rating ([9]; 125 g ai/ha) | Foxtail, Giant plant response rating ([9]; 500 g ai/ha) | Ryegrass, It. plant response rating ([10]; 125 g ai/ha) | Ryegrass, It. plant response rating ([10]; 500 g ai/ha) | other results
1 | CCOC(=O)Oc1c(C)nn(C)c(=O)c1-c1c(C)sc2ncc(C)cc12 [Compound 2] | 0 | 20 | 30 | 100 | 0 | 20 | 0 | 60 | 0 | 20 | 0 | 80 | 0 | 20 | 20 | 40 | 0 | 20 | 30 | 90 | Galium plant response rating ([11]; 125 g ai/ha): 40; Galium plant response rating ([11]; 500 g ai/ha): 80; Barnyardgrass plant response rating ([12]; 125 g ai/ha): 0; Barnyardgrass plant response rating ([12]; 500 g ai/ha): 20; Kochia plant response rating (kochia (Kochia scoparia) [13]; 125 g ai/ha): 30; Kochia plant response rating (kochia (Kochia scoparia) [13]; 500 g ai/ha): 90; Ragweed plant response rating ([14]; 125 g ai/ha): 20; Ragweed plant response rating ([14]; 500 g ai/ha): 50; Pigweed plant response rating ([15]; 125 g ai/ha): 70; Pigweed plant response rating ([15]; 500 g ai/ha): 90; Corn plant response rating (corn (Zea mays); 125 g ai/ha): 0; Corn plant response rating (corn (Zea mays); 500 g ai/ha): 0
2 | Cc1cnc2sc(C)c(-c3c(O)c(C)nn(C)c3=O)c2c1 [Compound 3] | 0 | 10 | 30 | 70 | 0 | 10 | 0 | 20 | 0 | 40 | 40 | 80 | 0 | 20 | 20 | 40 | 0 | 30 | 20 | 80 | Galium plant response rating ([11]; 125 g ai/ha): 30; Galium plant response rating ([11]; 500 g ai/ha): 80; Barnyardgrass plant response rating ([12]; 125 g ai/ha): 0; Barnyardgrass plant response rating ([12]; 500 g ai/ha): 30; Kochia plant response rating (kochia (Kochia scoparia) [13]; 125 g ai/ha): 30; Kochia plant response rating (kochia (Kochia scoparia) [13]; 500 g ai/ha): 90; Ragweed plant response rating ([14]; 125 g ai/ha): 20; Ragweed plant response rating ([14]; 500 g ai/ha): 50; Pigweed plant response rating ([15]; 125 g ai/ha): 80; Pigweed plant response rating ([15]; 500 g ai/ha): 90; Corn plant response rating (corn (Zea mays); 125 g ai/ha): 0; Corn plant response rating (corn (Zea mays); 500 g ai/ha): 0
3 | CCC(=O)Oc1c(C)nn(C)c(=O)c1-c1cccc2sccc12 [Compound 4] | 0 | 20 | 40 | 100 | 0 | 20 | 0 | 60 | 0 | 20 | 40 | 70 | 0 | 0 | 20 | 30 | 0 | 20 | 80 | 100 | Galium plant response rating ([11]; 125 g ai/ha): 70; Galium plant response rating ([11]; 500 g ai/ha): 90; Barnyardgrass plant response rating ([12]; 125 g ai/ha): 0; Barnyardgrass plant response rating ([12]; 500 g ai/ha): 20; Kochia plant response rating (kochia (Kochia scoparia) [13]; 125 g ai/ha): 0; Kochia plant response rating (kochia (Kochia scoparia) [13]; 500 g ai/ha): 20; Ragweed plant response rating ([14]; 125 g ai/ha): 0; Ragweed plant response rating ([14]; 500 g ai/ha): 40; Pigweed plant response rating ([15]; 125 g ai/ha): 20; Pigweed plant response rating ([15]; 500 g ai/ha): 30; Corn plant response rating (corn (Zea mays); 125 g ai/ha): 0; Corn plant response rating (corn (Zea mays); 500 g ai/ha): 0
4 | CCOC(=O)Oc1c(C)nn(C)c(=O)c1-c1cccc2sccc12 [Compound 5] | 0 | 40 | 80 | 100 | 0 | 40 | 10 | 30 | 0 | 20 | 20 | 100 | 0 | 20 | 30 | 60 | 0 | 20 | 70 | 90 | Galium plant response rating ([11]; 125 g ai/ha): 30; Galium plant response rating ([11]; 500 g ai/ha): 80; Barnyardgrass plant response rating ([12]; 125 g ai/ha): 0; Barnyardgrass plant response rating ([12]; 500 g ai/ha): 20; Kochia plant response rating (kochia (Kochia scoparia) [13]; 125 g ai/ha): 0; Kochia plant response rating (kochia (Kochia scoparia) [13]; 500 g ai/ha): 20; Ragweed plant response rating ([14]; 125 g ai/ha): 0; Ragweed plant response rating ([14]; 500 g ai/ha): 20; Pigweed plant response rating ([15]; 125 g ai/ha): 0; Pigweed plant response rating ([15]; 500 g ai/ha): 20; Corn plant response rating (corn (Zea mays); 125 g ai/ha): 0; Corn plant response rating (corn (Zea mays); 500 g ai/ha): 0
